Values after ≈ are worked out from the molar mass of the structure shown. Bounds are passed on as bounds.

The subject of series [1] is A. fumigatus (AF293, A1163, ATC204305, AF91). It is filed as cell-based.
The test system of series [2] is C. albicans SN250, C. albicans, C. krusei, C. glabrata, C. tropicalis, A. fumigatus 91, 1163, 1100. Put plainly: Average MIC over the tested strains. It is filed as cell-based.
The nature of series [3]: isothermal titration calorimetry (ITC) sterol binding. Particulars: for Cholesterol binding by ITC: within the detection limits of ITC. An excerpt:
(§1) This key discovery opened a path to the rational development of a non-toxic AmB variant. To probe its predicted role in sterol binding, the hydroxyl group was synthetically deleted at the C2′ position on the mycosamine appendage. […] Consistent with the sterol sponge model, this derivative retained good activity against yeast but, most importantly, was nontoxic to human red blood cells and primary (hREC) (FIG. 2B).
(§2) A practical 11-step synthesis of C2′epiAmB using a frontier site-selective acylation method was developed (FIG. 4). Wilcock, B. C. et al., Nat Chem 2012, 4 (12), 996-1003; Uno, B. E. A synthesis enabled understanding of Amphotericin B leading to derivatives with improved therapeutic indices. University of Illinois at Urbana-Champaign, 2014. The sterol binding and cell killing activities was then determined.

The subject of another series is human erythrocytes. The experiment in a line: MHC hemolysis assay. The series is classed as cell-based. Particulars: hemolysis, human erythrocytes, 37° C. 2 hours. How it is done: MHC (FIG. 21B): The protocol for the hemolysis assay was adapted from the report of Paquet and coworkers (Chem. Eur. J. 2008, 14, 2465-2481). Whole human blood (sodium heparin) was purchased from Bioreclamation LLC (Westbury, N.Y.) and stored at 4° C. and used within two days of receipt. To a 2.0 mL eppendorf tube, 1 mL of whole human blood was added and centrifuged at 10,000 g for 2 minutes. The supernatant was removed and the erythrocyte pellet was washed with 1 mL of sterile saline and centrifuged at 10,000 g for 2 minutes. The saline wash was repeated for a total of three washes. The erythrocyte pellet was suspended in 1 mL of RBC buffer (10 mM NaH2PO4, 150 mM NaCl, 1 mM MgCl2, pH 7.4) to form the erythrocyte stock suspension.
Compounds were prepared as >15 mM stock solutions in DMSO and serially diluted to the following concentrations with DMSO: 7689, 5126, 2563, 2050, 1538, 1025, 769, 513, 384, 256, 205, 154, 103, 77, 51, 26 μM. To a 0.2 mL PCR tube, 24 μL of RBC buffer and 1 μL of compound stock solution were added, which gave final concentrations of […]. Positive and negative controls were prepared by adding 1 μL of DMSO to MilliQ water or RBC buffer, respectively to 0.2 mL PCR tube. To each PCR tube, 0.63 μL of the erythrocyte stock suspension was added and mixed by inversion. The samples were incubated at 37° C. for 2 hours. The samples were mixed by inversion and centrifuged at 10,000 g for 2 minutes. 15 μL of the supernatant from each sample was added to a 384-well place. Absorbances were read at 540 nm using a Biotek H1 Synergy Hybrid Reader (Wanooski, Vt.). Experiments were performed in triplicate and the reported MHC represents an average of three experiments.

A further series has as its system rats. Put plainly: IV toxicity in rats (BUN, ALT/AST, mortality, Cmax). It is filed as in vivo. Particulars: IV 2, 10, and 17.5 mg/kg (the highest dose tested). How it is done: >100 mg of C2′epiAmB was prepared, formulated it as the corresponding deoxycholate complex, and evaluated this derivative head-to-head with AmB-deoxycholate for toxicity and efficacy in animal models.

The next series deals with C. albicans SN250. Put plainly: MIC. The series is classed as cell-based, Candida albicans.
Series [4] concerns human red blood cells and primary hREC. The experiment in a line: Toxicity to human cells. The series is classed as cell-based.
From the text: as §1, §2

Series [5] in a line: UV-Vis sterol binding assay. How it is done:
However, an alternative method was developed for reproducible formation of homogenous AmB and C2′epiAmB sterol sponge aggregates in vitro. Using these preparations, a quantitative UV-Vis and Principle Component (PCA) based assay for determining the apparent KDs for the binding of AmB and C2′epiAmB to ergosterol and cholesterol (FIGS. 5A-5D) was developed.
UV-Vis Binding Assay (FIG. 21A): The protocol for the sterol binding assay (UV-Vis) was developed in our lab. Compounds were dissolved in DMSO at a final concentration of 1 mM. Sterol were first dissolved in CHCl3 (>200 mM) and then diluted to 1 mM concentration with DMSO. To synthesize the complex 1 ul of compound solution was taken in a clean eppendorf tube (2 ml) and sterol solution (volume depends on the stoichiometry) was added to it and the volume was made up to 20 ul with DMSO. 0.98 ml of PBS buffer was added to the Eppendorf tube and mixed properly. The absorbance of the solution was measured after 30 mins of incubation.

A further series concerns C. albicans. The experiment in a line: Murine model of invasive candidiasis, neutropenic ICR/Swiss mice. It is filed as in vivo. Particulars: single IP injection, deoxycholate complex, 16 mg/kg dose. An excerpt:
Andes, D. et al., Antimicrobial agents and chemotherapy 2001, 45 (3), 922-6. In fact, the PD parameter that best correlates with outcome is Cmax-/MIC. The same was subsequently observed in a pulmonary model of invasive aspergillosis. Wiederhold, N. P. et al., Antimicrobial agents and chemotherapy 2006, 50 (2), 469-73.

Series [6] concerns 40 Aspergillus clinical isolates, including azole-resistant A. fumigatus, A. flavus, and A. terreus. Put plainly: Antifungal testing against 40 Aspergillus clinical isolates (Fungus Testing Laboratory). It is filed as cell-based.

With `C[C@@H]1[C@H](O)[C@@H](C)/C=C/C=C/C=C/C=C/C=C/C=C/C=C/[C@H](O[C@@H]2O[C@H](C)[C@@H](O)[C@H](N)[C@H]2O)C[C@@H]2O[C@](O)(C[C@@H](O)C[C@@H](O)[C@H](O)CC[C@@H](O)C[C@@H](O)CC(=O)O[C@H]1C)C[C@H](O)[C@H]2C(=O)O` [C2′epiAmB, C2′epi-Amphotericin B], the “Times less potent than AmB” value in [1] is recorded as > 32 times; in [6], 2-16 times. Besides, the “Average MIC” value in series [2] (Table 13, C16 amides of C2’epiAmB) stood at 9030 µM. The MIC in series [2] (average over the 8 listed strains) is given as >6.844 µM. Moreover, the “Ergosterol binding by ITC” value in series [3] is reported as “bind ergosterol”. The “Cholesterol binding by ITC” value in series [3] is recorded as “not (detectably) cholesterol”. In addition, the MHC with human erythrocytes is >500 µM. In the series with rats, the “BUN, ALT/AST and mortality, rats” value is “no elevations in BUN or ALT/AST and no mortality”. Further, the “MIC C. albicans SN250” value in the series on C. albicans SN250 was 0.5 µM (≈ 0.462 µg/mL). Moreover, the “Toxicity to human cells” value in series [4] is reported as “not human cells”. The “Cholesterol Binding” value in [5] was “No”. The “Fungal burden, murine invasive candidiasis” value with C. albicans was “outstanding reductions in fungal burden”.

`CC1C=CC=CC=CC=CC=CC=CC=CC(OC2CC(N)C(O)C(C)O2)CC2OC(O)(CC(O)CC(O)C(O)CCC(O)CC(O)CC(=O)OC(C)C(C)C1O)CC(O)C2C(=O)O` (stereo not drawn) [C2′deOAmB, reference compound]: in [3], the “Ergosterol binding by ITC” value is “bind ergosterol” and the “Cholesterol binding by ITC” value is recorded as “not cholesterol”. Besides, the “Toxicity to human cells” value in series [4] is “nontoxic”.
